Laboratory results: patent US20020040032A1, “Methods for stimulation of synthesis of synaptophysin in the central nervous system” (priority 2000, published 2002)

Tests used:
PC12 cells = assay: Differentiation of PC12 cells (Example 2); format: cell-based
synaptophysin [1] = assay: Synaptophysin levels in PC12 cells after treatment, Western immunoblot (Example 1); format: cell-based
Protocol: PC12 cells were first grown to 70-80% confluence in the regular medium. A day prior to the experiment, PC12 cells were subcultured uniformly onto the plate with minimum cellular aggregation/clumping to approximately 1×10^6 cells per 60-mm plate. The PC12 cells were then subjected to treatments with either AIT-082, NGF, bFGF or a combination as previously described (5). AIT-082 was added into separate plates at […]: 0, 5, 20, 30, 50, 100, 300 ng/ml and also 1, 3, 10, 30, 100 μg/ml. For comparative purposes, cultures were treated with NGF at 10 and 50 ng/ml, and bFGF was used at 50 ng/ml. Additional cultures contained both AIT-082 (300 ng/ml) and either NGF (50 ng/ml) or bFGF (50 ng/ml). These different agents were prepared in the same culture medium and added to the respective plate. Following incubation for 48 hours, the conditioned medium from each plate was collected.
Total proteins from the conditioned media were analyzed on a 12% polyacrylamide gel containing SDS (SDS-PAGE), and western blot analysis was performed in the Mini-PROTEAN II system of Bio-Rad as described previously (7). Levels of synaptophysin in the conditioned medium and the cell lysates (intracellular) were analyzed using an anti-synaptophysin antibody (Boehringer Mannheim). A biotinylated secondary antibody, horse anti-mouse (Boehringer Mannheim), was also used. The detection system was based on the avidin-biotinylated-complex (Vector labs, Burlingame, Calif.) and enzymatic color reactions.

synaptophysin [2] = assay: Time course of synaptophysin accumulation after administration to PC12 cells, Western immunoblot (Example 2); format: cell-based
Protocol: To determine the time course of synaptophysin accumulation in the extracellular fluid after administration of AIT-082 or NGF to PC12 cells, an experiment similar to the experiment of Example 1 was carried out using multiple time points. Five to six million PC12 cells were treated in RPMI 1640 and 0.5% FBS with doses of AIT-082 (10 nM-100 μM). […] Levels of synaptophysin in samples from conditioned media and cell lysates were measured by Western immunoblotting with anti-synaptophysin antibodies.

[3] = test system: nerve growth factor (NGF), neurotrophin-3, and basic fibroblast growth factor (bFGF); settings: reference 4 (Rathbone et al. 1999); cited from earlier work

Compound | phenotype after treatment (PC12 cells) | effect of cotreatment on NGF-mediated differentiation (PC12 cells; cotreatment with NGF) | dose giving the highest level of synaptophysin (synaptophysin [1]; PC12 cells, conditioned medium, densitometry, FIG. 2) | amount of synaptophysin in the conditioned medium vs. control (synaptophysin [1]; PC12 cells, dose-dependent from 5-30 ng/ml, FIG. 1 lanes 5-8 vs. lane 1) | level of synaptophysin in the conditioned medium vs. control at higher doses (synaptophysin [1]; PC12 cells, doses above 30 ng/ml, increase not sustained to the same extent) | intracellular levels of synaptophysin vs. control (synaptophysin [1]; PC12 cultures, cell lysates) | levels of synaptophysin in the conditioned medium vs. control (synaptophysin [2]; 10 nM-100 μM, 6, 12, 24, 48, or 72 hours, each time point) | intracellular levels of synaptophysin (synaptophysin [2]; cell lysates, 10 nM-100 μM) | induction of expression of neurotrophins [3]
NGF: Nerve growth factor procured from Life Technologies | sympathetic neuronal phenotypes | – | – | – | – | – | – | – | –
O=C(CCn1cnc2c(=O)[nH]cnc21)Nc1ccc(C(=O)O)cc1 [AIT-082, N-4-carboxyphenyl-3-(6-oxohydropurin-9-yl)propanamide] | – | enhanced NGF-mediated differentiation | 30 ng/mL | increased | still greater than the control | significant increase | significantly increased | significant increase | can induce the expression of at least three neurotrophins
